Data from EP0129409B1, “Thiazolo - and thiazinobenzimidazoles” (JOHN WYETH & BROTHER LIMITED, priority 1983, dated 1984).
Like-named read-outs stand apart in the source and are kept apart here.

Tests used:
[1] = antisecretory activity, test of Shay, Sun and Gruenstein; conditions: in vivo
H⁺/K⁺ ATPase = target: T1, H⁺/K⁺ ATPase (Oryctolagus cuniculus, UniProt P27112); assay: inhibition of 14C-aminopyrine uptake in rabbit isolated gastric glands stimulated by DBcAMP or high K+; assay type: cell-based; conditions: % inhibition of the maximum response to the secretagogue; for inhibition at 10 µM: at 10⁻⁵M
T1 construct: Rabbit gastric glands are isolated from gastric mucosa from the corpus region of the stomach; from tissue; host or cells: rabbit isolated gastric glands (gastric mucosa, corpus region of the stomach)
Protocol: Compounds of formula I were also tested for anti-secretory activity by their ability to inhibit the highly specific proton transporting enzyme H⁺/K⁺ ATPase.
Potential H⁺/K⁺ ATPase inhibitors were evaluated by a technique involving the measurement of aminopyrine accumulation in rabbit isolated gastric glands. Aminopyrine accumulates in acid-secreting cells; therefore, uptake of aminopyrine is increased by secretagogues and an inhibitor of acid secretion will reduce the response to one or more secretagogues depending upon its site of action. […] The following test procedure is used: Rabbit gastric glands are isolated from gastric mucosa from the corpus region of the stomach by a method based on one described by Berglindh T., Obrink K.J., Acta Physiol. Scand.
Results are expressed as the % inhibition of the maximum response to the secretagogue induced by the test compound. An inhibitor of H⁺/K⁺ ATPase would be expected to reduce the response to both secretagogues.

stress-induced erosion = stress-induced erosion test of Senay and Levine (anti-ulcer activity); assay type: in vivo; conditions: decrease in ulcer formation as percentage of control score, rats, oral
Protocol: Anti-ulcer activity was determined by the stress-induced erosion test of Senay and Levine, Proc. Soc. Exp. Biol. Med., 124, 1221-3 (1967). The procedure used was as follows.
Male rats, weighing between 80 and 120 gms. were fasted overnight with water ad lib. The rats were then divided into groups of six and dosed orally with the test drug in the form of a solution or with the vehicle alone, 0.5% carboxymethylcellulose, in a volume of 10ml/kg.
After 30 minutes the rats were inserted into aluminium restraining tubes measuring 1⁵/₈ inches in diameter by 5 inches and placed in the cold (4±1°C) for 3 hours. Immediately after cold exposure the rats were killed with intracranial alcohol and their stomachs excised and opened along the greater curvature. Each stomach was washed gently free of contents with warm tap water and pinned out on a board. The condition of the gastric mucosa was then scored from 0 to 6 on the following scale:
The maximum possible score for each animal was 6 and for the group 36. Decrease in ulcer formation was calculated as a percentage of the control score, i.e. [formula] The statistical significance of the effect is assessed by Student's t-test.

[2] = at 10⁻⁴M, read-out: % Inhibition to stimulation by: DBcAMP
[3] = at 10⁻⁴M, read-out: % Inhibition to stimulation by: K⁺

T1 sequence (P27112 whole entry): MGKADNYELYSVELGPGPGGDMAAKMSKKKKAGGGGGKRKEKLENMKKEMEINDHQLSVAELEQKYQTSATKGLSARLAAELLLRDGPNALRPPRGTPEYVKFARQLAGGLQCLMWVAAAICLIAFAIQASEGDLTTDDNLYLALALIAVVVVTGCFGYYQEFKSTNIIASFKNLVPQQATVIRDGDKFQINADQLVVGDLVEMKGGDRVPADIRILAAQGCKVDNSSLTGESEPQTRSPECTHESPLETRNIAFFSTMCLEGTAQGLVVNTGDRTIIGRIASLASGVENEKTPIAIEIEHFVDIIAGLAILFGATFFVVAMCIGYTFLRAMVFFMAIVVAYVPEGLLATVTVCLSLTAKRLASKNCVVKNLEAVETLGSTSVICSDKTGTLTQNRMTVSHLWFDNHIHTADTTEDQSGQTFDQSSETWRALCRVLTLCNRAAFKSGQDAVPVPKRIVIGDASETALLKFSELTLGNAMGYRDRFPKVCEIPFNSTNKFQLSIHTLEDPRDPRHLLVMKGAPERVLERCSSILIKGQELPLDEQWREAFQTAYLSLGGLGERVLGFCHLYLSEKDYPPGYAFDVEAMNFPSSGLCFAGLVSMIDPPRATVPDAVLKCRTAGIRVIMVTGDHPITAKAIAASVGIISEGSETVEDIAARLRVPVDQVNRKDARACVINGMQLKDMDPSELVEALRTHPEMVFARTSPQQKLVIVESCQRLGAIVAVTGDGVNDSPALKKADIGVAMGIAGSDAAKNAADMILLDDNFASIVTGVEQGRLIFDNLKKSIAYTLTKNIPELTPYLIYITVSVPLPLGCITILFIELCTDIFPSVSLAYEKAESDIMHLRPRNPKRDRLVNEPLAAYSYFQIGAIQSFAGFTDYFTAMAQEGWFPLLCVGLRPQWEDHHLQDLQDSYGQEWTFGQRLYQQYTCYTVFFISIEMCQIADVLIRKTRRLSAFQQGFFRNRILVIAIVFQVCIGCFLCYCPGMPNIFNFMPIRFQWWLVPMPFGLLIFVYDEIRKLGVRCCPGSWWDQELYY
T1 sequence (P18597 whole entry partner): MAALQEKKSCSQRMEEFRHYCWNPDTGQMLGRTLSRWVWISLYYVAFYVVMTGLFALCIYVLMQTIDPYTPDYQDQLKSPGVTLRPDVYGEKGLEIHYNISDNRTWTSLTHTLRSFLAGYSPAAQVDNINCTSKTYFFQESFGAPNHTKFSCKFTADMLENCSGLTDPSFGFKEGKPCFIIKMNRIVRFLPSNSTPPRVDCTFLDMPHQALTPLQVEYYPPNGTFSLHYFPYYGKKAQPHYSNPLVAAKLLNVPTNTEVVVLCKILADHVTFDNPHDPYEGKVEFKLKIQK

For “2,3-Dihydro-6-methyl-2-(2-pyridyl)thiazolo[3,2-a]-benzimidazole and 2,3-Dihydro-7-methyl-2-(2-pyridyl)-thiazolo [3,2-a]benzimidazole [Example 7]”, the Antisecretory activity [1] was “particularly active”.

With “2,3-Dihydro-6-methyl-2-(2-pyridyl)thiazolo[3,2-a]-benzimidazole-1-oxide and 2,3-Dihydro-7-methyl-2-(2-pyridyl)thiazolo[3,2-a]benzimidazole-1-oxide [Example 10]” the Antisecretory activity [1] was “particularly active”.

For “6-Chloro-2,3-dihydro-2-(2-pyridyl)thiazolo[3,2-a]-benzimidazole-1-oxide and 7-chloro-2,3-dihydro-2-(2-pyridyl)-thiazolo[3,2-a]benzimidazole-1-oxide [Example 18]”, the Antisecretory activity [1] was “particularly active”.

For “6-Ethoxy-2-(2-pyridyl)thiazolo[3,2-a]-benzimidazole and 7-ethoxy-2-(2-pyridyl)thiazolo[3,2-a]benzimidazole [Example 24]”, the “% Inhibition to stimulation by: DBcAMP” value (H⁺/K⁺ ATPase; at 10⁻⁴M, 100 µM) was 68% at 10⁻⁴M and the “% Inhibition to stimulation by: K⁺” value (H⁺/K⁺ ATPase; at 10⁻⁴M, 100 µM) was 162% at 10⁻⁴M.

With `c1ccc(C2Cn3c(nc4ccccc43)S2)nc1` (centres unmarked) [Example 1, 2,3-Dihydro-2-(2-pyridyl)thiazolo[3,2-a]benzimidazole] the Antisecretory activity [1] was “particularly active”, the Inhibition (stress-induced erosion; Dose 30 mg/kg) was 86% and the Inhibition (stress-induced erosion; Dose 100 mg/kg) was 75%.

For `[O-][S+]1c2nc3ccccc3n2CC1c1ccccn1` (centres unmarked) [Example 2, 2,3-Dihydro-2-(2-pyridyl)thiazolo[3,2-a]benzimidazole-1-oxide], the Antisecretory activity [1] was “particularly active”, the inhibition at 100 µM (H⁺/K⁺ ATPase; [2]) was 74% and the inhibition at 100 µM (H⁺/K⁺ ATPase; [3]) was 91%. For the same compound, the inhibition at 10 µM (H⁺/K⁺ ATPase; read-out: % Inhibition to stimulation by: DBcAMP) was 73% and the inhibition at 10 µM (H⁺/K⁺ ATPase; read-out: % Inhibition to stimulation by: K⁺) was 26%.

`c1ccc(C2Cn3c(nc4ccccc43)S2)cc1` (centres unmarked) [Example 3, 2,3-Dihydro-2-phenylthiazolo[3,2-a]benzimidazole] gave an Inhibition (stress-induced erosion; Dose 100 mg/kg) of 74%.

`Cc1ccc(C2Cn3c(nc4cc(Cl)c(Cl)cc43)S2)cn1` (centres unmarked) [Example 6, 6,7-Dichloro-2,3-dihydro-2-(6-methylpyrid-3-yl)thiazolo-[3,2-a]benzimidazole] gave an inhibition at 100 µM (H⁺/K⁺ ATPase; [2]) of 90% and an inhibition at 100 µM (H⁺/K⁺ ATPase; [3]) of 187%.

In the case of `Clc1cc2nc3n(c2cc1Cl)CC(c1ccccn1)S3` (centres unmarked) [Example 8, 6,7-Dichloro-2,3-dihydro-2-(2-pyridyl)thiazolo[3,2-a]-benzimidazole], the inhibition at 100 µM (H⁺/K⁺ ATPase; [2]) was 50.5%.

In the case of `Cc1cc2nc3n(c2cc1C)CC(c1ccccn1)S3` (centres unmarked) [Example 9, 2,3-Dihydro-6,7-dimethyl-2-(2-pyridyl)thiazolo[3,2-a]-benzimidazole], the Antisecretory activity [1] was “particularly active” and the Inhibition (stress-induced erosion; Dose 100 mg/kg) was 82%.

With `Cc1cc2nc3n(c2cc1C)CC(c1ccccn1)[S+]3[O-]` (centres unmarked) [Example 13, 2,3-Dihydro-6,7-dimethyl-2-(2-pyridyl)thiazolo[3,2-a]-benzimidazole-1-oxide] the Antisecretory activity [1] was “particularly active”, the inhibition at 100 µM (H⁺/K⁺ ATPase; [2]) was 30% and the inhibition at 100 µM (H⁺/K⁺ ATPase; [3]) was 209%.

Compound `CCc1ccc(-c2cn3c(nc4ccccc43)s2)nc1` [Example 27, 2-(2-(5-Ethylpyridyl))thiazolo[3,2-a]benzimidazole] has an inhibition at 100 µM (H⁺/K⁺ ATPase; [2]) of 56% and an inhibition at 100 µM (H⁺/K⁺ ATPase; [3]) of 142%.

With `c1ccc(-c2cccc(-c3cn4c(nc5ccccc54)s3)n2)cc1` [Example 37, 2-[2-(6-Phenylpyridyl)]thiazolo[3,2-a]benzimidazole] the inhibition at 100 µM (H⁺/K⁺ ATPase; [2]) was 22% and the inhibition at 100 µM (H⁺/K⁺ ATPase; [3]) was 381%.
